The record followed here is the NIST ThermoML archive (doi:10.1016/j.jct.2016.11.024).

The conditions of this data set: Liquid, Ebulliometric method (Recirculating still).

Numbers after ± are expanded uncertainties.

On to `CCCCCCCC(=O)OC` [methyl octanoate], for which the “vapor or sublimation pressure” value reads like this: (356.53 K) 2 ± 0.2 kPa; (380.5 K) 6 ± 0.61 kPa; (391.77 K) 10 ± 1 kPa.

`CCCCCCCCCC(=O)OC` [methyl decanoate]: the “vapor or sublimation pressure” value (389.1 K) was determined as 2 ± 0.2 kPa, the “vapor or sublimation pressure” value (412.93 K) is 6 ± 0.61 kPa and the “vapor or sublimation pressure” value (424.43 K) is 10 ± 1 kPa.
